In patent US20260000735A1, “ENHANCED DIFFERENTIATION OF BETA CELLS” (Vertex Pharmaceuticals Incorporated, priority 2019, published 2026):

How the values were obtained:
Format in all cases: cell-based
[1] = tested on: SC-β cells (Nkx6.1/Isl1 double positive cells); assay: Percent SC-β cells (Nkx6.1/Isl1 double positive) by FACS; settings: for SC-β cell percent in stage 6: added to the culture medium during days 1-10 of stage 6, JJKK 048 1 μM, KML 29 10 μM, NF 1819 10 μM
Description: (§1) In this instance cryopreserved stage 5 individual cells were thawed and cultured in a modified stage 5 (S5) medium during the first 4 days of Stage 6 (S6d1-d4) […], with subsequent culture of the cells in Stage 6 (S6) medium (see experimental outline in FIG. 2).
(§2) The effect of supplementing the modified S5 medium used in stage 6 with one or more saturated fatty acid of unsaturated fatty acid was analyzed. The fatty acids analyzed included palmitate (saturated fatty acid), oleic acid (unsaturated fatty acid), linoleic acid (unsaturated fatty acid), and palmitoleic acid (unsaturated fatty acid) (see protocol is outlined in FIG. 20). The fatty acid free HSA+fatty acid were stirred for 1 hour at 37° C.
MGLL (monoacylglycerol lipase) is a serine hydrolase that catalyzes the conversion of monoacylglycerides to free fatty acids and glycerol. The effect of three highly specific MGLL inhibitors (JJKK 048 (1 μM), KML 29 (10 μM), NF 1819 (10 μM)) on SC-β cell production was analyzed.
Stage 5 insulin-positive endocrine cell clusters were differentiated from stem cells as described herein. The insulin-positive endocrine cell clusters were dissociated such that the majority of the dissociated cells were now individual cells, and the cells were then cryopreserved, and thawed. The thawed individual cells were then differentiated into β cell clusters through a stage 6 differentiation. […] The base medium of MDCB 131 with 0.05% HSA was used for days 5-11 of stage 6 (FIG. 30, FIG. 31).

[2] = tested on: thawed cryopreserved stage 5 cells; assay: Cell recovery / viable cell number in stage 6 culture after thaw of cryopreserved stage 5 cells; settings: inclusion in DS3 media
Description: The insulin-positive endocrine progenitor cell clusters were dissociated such that the majority of the dissociated cells were individual cells, and the cells were cryopreserved, and thawed. The thawed cells are then differentiated into β cell clusters through a stage 6 differentiation. The stage 6 culture medium comprises DMEM F12 base with 1% human serum albumin (HSA), and optionally 1.5 μM zinc (“DS2 medium”). […] Thus, whether alteration of the S6 medium could improve recovery was analyzed.
In this instance cryopreserved stage 5 individual cells were thawed and cultured in a modified stage 5 (S5) medium during the first 4 days of Stage 6 (S6d1-d4) (approximately 72 hours), with subsequent culture of the cells in Stage 6 (S6) medium (see experimental outline in FIG. 2).
Several factor drop out experiments were conducted to identify the contribution of each factor.

SC-islet cell clusters = assay: Cell cluster size, morphology, homogeneity, re-aggregation and stability (microscopy); settings: day 6 of stage 6 (S6d6), fatty acid supplementation
Description: as §2
A select number of metabolites were included in the DS6 medium, including: glutamate, acetate, β hydroxybutarate, L-caratine, taurine, formate, and biotin.

SC-β cells / SC-islets = assay: Glucose stimulated insulin secretion (GSIS), human C-peptide per 1000 cells; settings: day 10 of stage 6 (S6d10); addition post day 4 of stage 6
Description: FIG. 18A is a bar graph showing the glucose stimulated insulin secretion (GSIS) of cells at day 12 of stage 6 (S6d12). GSIS was measured as the level of human C-peptide (pM) per 1000 cells after glucose stimulation. The cells were cultured in stage 6 (S6) medium+1% HSA for days 1-12 of stage 6.
A range of 2.8 mM and 20 mM glucose was used to stimulate GSIS (See experimental protocol FIG. 13).

SC-β cells = assay: Number / recovery / yield of SC-β cells in stage 6; settings: day 10 of stage 6; with 0.5% HSA
Description: as §1, §2

| SMILES | SC-β cell percent in stage 6 [1] | size of the cell clusters (SC-islet cell clusters) | further results |
| --- | --- | --- | --- |
| O=C(N1CCC(C(c2ccc3c(c2)OCO3)c2ccc3c(c2)OCO3)CC1)n1cncn1 [JJKK 048] | around 50% |  |  |
| O=C(OC(C(F)(F)F)C(F)(F)F)N1CCC(C(O)(c2ccc3c(c2)OCO3)c2ccc3c(c2)OCO3)CC1 [KML 29] | around 50% |  |  |
| O=C1[C@H](c2ccc(F)cc2)[C@@H](c2ccc3c(c2)OCO3)N1C1CCN(C(=O)n2cncn2)CC1 [NF 1819] | around 50% |  |  |
| O=S(=O)([O-])[O-].[Zn+2] [ZnSO4] |  |  | S6d4 viable cell number [2]: greatly improves S6d4 viable cell number |
| CCCCC/C=C\C/C=C\CCCCCCCC(=O)O [linoleic acid] |  | enhances the size of the cell clusters |  |
| CCCCCCCCCCCCCCCC(=O)O [palmitate, palmitic acid] |  | enhances the size of the cell clusters | GSIS (SC-β cells / SC-islets): improves GSIS; percent of SC-β cells (Nkx6.1/Isl1 double positive cells) recovered ([1]; fatty acid added to the modified S5 medium, days 1-4 of stage 6): improved; total number of SC-β cells recovered (SC-β cells): enhanced the total number of SC-β cells recovered |
